From the NIST ThermoML archive (doi:10.1016/j.tca.2016.05.013)

Columns and labels:
[1] = mn = molality of the nth substance listed, in mol/kg; settings: 86.8 kPa, Liquid; for viscosity: Falling or rolling sphere viscometry; for speed of sound: Frequency=3 MHz, Sing-around technique in a fixed-path interferometer; for mass density: Vibrating tube method
[2] = refractive index (Na D-line) (dimensionless); mn = molality of the nth substance listed, in mol/kg; settings: 86.8 kPa, Liquid, Standard Abbe refractometry

CCCCn1cc[n+](C)c1.O=C([O-])c1ccccc1O [1-butyl-3-methylimidazolium salicylate] + O
Settings	mass density, [1] [kg/m3]	refractive index, [2]	speed of sound, [1] [m/s]	viscosity, [1] [mPa·s]
288.15 K, m1 = 0.1012	–	–	–	1.289
288.15 K, m1 = 0.1032	1004.94	1.3381	1484.4	1.296
288.15 K, m1 = 0.1055	1005.04	1.3383	1484.4	–
288.15 K, m1 = 0.2001	1010.28	1.3427	1499.1	–
288.15 K, m1 = 0.2005	1010.45	1.3429	1499.5	–
288.15 K, m1 = 0.2124	–	–	–	1.432
288.15 K, m1 = 0.2146	–	–	–	1.44
288.15 K, m1 = 0.2965	1015.79	1.3479	1513.9	–
288.15 K, m1 = 0.3002	1015.82	1.3479	1513.6	–
288.15 K, m1 = 0.3146	–	–	–	1.535
288.15 K, m1 = 0.3152	–	–	–	1.536
298.15 K, m1 = 0.1012	–	–	–	1.037
298.15 K, m1 = 0.1032	1002.65	1.3376	1512	1.042
298.15 K, m1 = 0.1055	1002.65	1.3376	1511.9	–
298.15 K, m1 = 0.2001	1007.67	1.342	1524.5	–
298.15 K, m1 = 0.2005	1007.91	1.342	1524.8	–
298.15 K, m1 = 0.2124	–	–	–	1.159
298.15 K, m1 = 0.2146	–	–	–	1.162
298.15 K, m1 = 0.2965	1012.99	1.3468	1537	–
298.15 K, m1 = 0.3002	1012.91	1.3468	1537	–
298.15 K, m1 = 0.3146	–	–	–	1.256
298.15 K, m1 = 0.3152	–	–	–	1.253
308.15 K, m1 = 0.1012	–	–	–	0.869
308.15 K, m1 = 0.1032	999.4	1.3365	1532.3	0.872
308.15 K, m1 = 0.1055	999.44	1.3365	1532.4	–
308.15 K, m1 = 0.2001	1004.28	1.3407	1543.5	–
308.15 K, m1 = 0.2005	1004.44	1.3408	1543.3	–
308.15 K, m1 = 0.2124	–	–	–	0.981
308.15 K, m1 = 0.2146	–	–	–	0.986
308.15 K, m1 = 0.2965	1009.39	1.3456	1553.8	–
308.15 K, m1 = 0.3002	1009.41	1.3455	1553.8	–
308.15 K, m1 = 0.3146	–	–	–	1.078
308.15 K, m1 = 0.3152	–	–	–	1.076
318.15 K, m1 = 0.1012	–	–	–	0.748
318.15 K, m1 = 0.1032	995.42	1.335	1546.8	0.751
318.15 K, m1 = 0.1055	995.43	1.3352	1547.3	–
318.15 K, m1 = 0.2001	1000.19	1.3393	1555.9	–
318.15 K, m1 = 0.2005	1000.27	1.3395	1556	–
318.15 K, m1 = 0.2124	–	–	–	0.87
318.15 K, m1 = 0.2146	–	–	–	0.876
318.15 K, m1 = 0.2965	1005.07	1.344	1565	–
318.15 K, m1 = 0.3002	1004.98	1.344	1564.8	–
318.15 K, m1 = 0.3146	–	–	–	0.962
318.15 K, m1 = 0.3152	–	–	–	0.96
